Measurements: the kinase profiling compilation of Christmann-Franck et al. (2016)

What was measured:
Assay in all cases: radiometric filter-binding kinase assay, Kinase HotSpot
Conditions in all cases: compound 0.5 µM; ATP 10 µM
ACVR1 (human) = ACVR1 (human) (UniProt Q04771)
BRSK1 (human) = BRSK1 (human) (UniProt Q8TDC3)
CAMK1 (human) = CAMK1 (human) (UniProt Q14012)
CAMK1G (human) = CAMK1G (human) (UniProt Q96NX5)
CAMK2D (human) = CAMK2D (human) (UniProt Q13557)
CDK5 CDK5R1 p25 (human) = CDK5 CDK5R1 p25 (human) (UniProt Q00535+Q15078)
CHUK (human) = CHUK (human) (UniProt O15111)
CSNK1G1 (human) = CSNK1G1 (human) (UniProt Q9HCP0)
CSNK1G1 (human), sequence (Q9HCP0 whole entry, looked up): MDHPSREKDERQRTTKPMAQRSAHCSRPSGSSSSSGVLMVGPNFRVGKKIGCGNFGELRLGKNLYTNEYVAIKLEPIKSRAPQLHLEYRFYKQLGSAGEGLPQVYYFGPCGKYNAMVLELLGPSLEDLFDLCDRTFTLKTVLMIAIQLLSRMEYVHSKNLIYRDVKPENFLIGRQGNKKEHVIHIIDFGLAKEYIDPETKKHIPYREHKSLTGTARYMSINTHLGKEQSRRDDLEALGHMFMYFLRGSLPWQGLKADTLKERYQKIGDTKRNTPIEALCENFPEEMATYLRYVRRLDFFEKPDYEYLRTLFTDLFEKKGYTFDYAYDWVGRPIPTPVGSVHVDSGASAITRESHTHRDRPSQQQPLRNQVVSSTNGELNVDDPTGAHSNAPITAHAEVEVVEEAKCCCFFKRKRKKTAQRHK

CSNK2A1 (human) = CSNK2A1 (human) (UniProt P68400)
DAPK1 (human) = DAPK1 (human) (UniProt P53355)
DDR2 (human) = DDR2 (human) (UniProt Q16832)
DDR2 (human), sequence (Q16832 whole entry, looked up): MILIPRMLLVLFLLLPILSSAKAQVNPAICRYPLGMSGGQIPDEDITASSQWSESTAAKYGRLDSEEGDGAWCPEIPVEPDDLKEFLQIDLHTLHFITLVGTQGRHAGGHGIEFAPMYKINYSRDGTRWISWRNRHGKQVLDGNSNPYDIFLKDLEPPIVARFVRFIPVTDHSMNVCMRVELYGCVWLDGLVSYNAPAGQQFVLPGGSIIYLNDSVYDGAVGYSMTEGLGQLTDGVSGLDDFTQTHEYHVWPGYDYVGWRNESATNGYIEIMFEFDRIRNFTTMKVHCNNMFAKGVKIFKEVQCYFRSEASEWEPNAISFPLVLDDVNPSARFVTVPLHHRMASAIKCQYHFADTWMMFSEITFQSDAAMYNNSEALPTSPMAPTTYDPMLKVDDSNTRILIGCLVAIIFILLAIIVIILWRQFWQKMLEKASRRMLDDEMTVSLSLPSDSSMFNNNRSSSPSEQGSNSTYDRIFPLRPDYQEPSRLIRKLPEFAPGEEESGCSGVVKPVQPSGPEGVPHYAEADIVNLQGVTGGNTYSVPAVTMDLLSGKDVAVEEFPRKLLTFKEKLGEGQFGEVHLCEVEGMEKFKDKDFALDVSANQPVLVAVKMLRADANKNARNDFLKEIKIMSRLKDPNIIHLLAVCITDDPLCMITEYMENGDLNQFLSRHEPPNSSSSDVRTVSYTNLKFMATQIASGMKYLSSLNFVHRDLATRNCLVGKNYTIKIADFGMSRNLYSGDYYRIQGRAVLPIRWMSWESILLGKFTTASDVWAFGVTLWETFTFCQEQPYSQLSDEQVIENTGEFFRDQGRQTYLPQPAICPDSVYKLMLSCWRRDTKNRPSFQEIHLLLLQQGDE

EPHA1 (human) = EPHA1 (human) (UniProt P21709)
EPHA2 (human) = EPHA2 (human) (UniProt P29317)
EPHA3 (human) = EPHA3 (human) (UniProt P29320)
EPHA7 (human) = EPHA7 (human) (UniProt Q15375)
EPHA7 (human), sequence (Q15375 whole entry, looked up): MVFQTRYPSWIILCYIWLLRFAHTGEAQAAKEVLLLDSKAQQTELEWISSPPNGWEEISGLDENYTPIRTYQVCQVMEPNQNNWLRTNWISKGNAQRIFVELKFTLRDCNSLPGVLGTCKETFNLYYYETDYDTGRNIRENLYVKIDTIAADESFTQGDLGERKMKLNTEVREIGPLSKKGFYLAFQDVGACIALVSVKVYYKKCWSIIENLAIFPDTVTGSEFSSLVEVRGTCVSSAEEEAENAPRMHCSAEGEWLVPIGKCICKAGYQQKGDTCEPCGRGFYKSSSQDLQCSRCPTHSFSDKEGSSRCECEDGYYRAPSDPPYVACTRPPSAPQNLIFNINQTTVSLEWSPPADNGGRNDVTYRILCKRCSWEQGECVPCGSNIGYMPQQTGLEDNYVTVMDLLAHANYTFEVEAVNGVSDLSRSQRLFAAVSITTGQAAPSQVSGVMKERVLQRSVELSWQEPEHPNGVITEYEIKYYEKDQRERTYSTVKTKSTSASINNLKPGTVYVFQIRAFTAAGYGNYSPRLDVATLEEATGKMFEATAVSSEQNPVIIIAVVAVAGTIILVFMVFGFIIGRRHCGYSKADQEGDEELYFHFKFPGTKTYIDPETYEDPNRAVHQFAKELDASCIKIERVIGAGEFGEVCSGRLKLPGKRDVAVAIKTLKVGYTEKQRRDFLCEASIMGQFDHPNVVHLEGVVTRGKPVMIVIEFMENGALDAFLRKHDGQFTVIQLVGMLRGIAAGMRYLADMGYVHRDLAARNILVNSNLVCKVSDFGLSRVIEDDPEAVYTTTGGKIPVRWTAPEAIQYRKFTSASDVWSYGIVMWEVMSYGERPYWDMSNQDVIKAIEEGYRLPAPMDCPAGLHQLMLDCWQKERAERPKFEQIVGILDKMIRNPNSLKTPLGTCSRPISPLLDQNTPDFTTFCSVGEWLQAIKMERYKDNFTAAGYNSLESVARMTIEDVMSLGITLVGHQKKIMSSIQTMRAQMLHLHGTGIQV

EPHB1 (human) = EPHB1 (human) (UniProt P54762)
FER (human) = FER (human) (UniProt P16591)
GRK6 (human) = GRK6 (human) (UniProt P43250)
HIPK1 (human) = HIPK1 (human) (UniProt Q86Z02)
HIPK2 (human) = HIPK2 (human) (UniProt Q9H2X6)
IRAK1 (human) = IRAK1 (human) (UniProt P51617)
LTK (human) = LTK (human) (UniProt P29376)
MAP3K5 (human) = MAP3K5 (human) (UniProt Q99683)
MAPK1 (human) = MAPK1 (human) (UniProt P28482)
MAPK8 (human) = MAPK8 (human) (UniProt P45983)
MARK2 (human) = MARK2 (human) (UniProt Q7KZI7)
MST1R (human) = MST1R (human) (UniProt Q04912)
MYO3B (human) = MYO3B (human) (UniProt Q8WXR4)
NEK3 (human) = NEK3 (human) (UniProt P51956)
NEK4 (human) = NEK4 (human) (UniProt P51957)
NEK6 (human) = NEK6 (human) (UniProt Q9HC98)
NEK6 (human), sequence (Q9HC98 whole entry, looked up): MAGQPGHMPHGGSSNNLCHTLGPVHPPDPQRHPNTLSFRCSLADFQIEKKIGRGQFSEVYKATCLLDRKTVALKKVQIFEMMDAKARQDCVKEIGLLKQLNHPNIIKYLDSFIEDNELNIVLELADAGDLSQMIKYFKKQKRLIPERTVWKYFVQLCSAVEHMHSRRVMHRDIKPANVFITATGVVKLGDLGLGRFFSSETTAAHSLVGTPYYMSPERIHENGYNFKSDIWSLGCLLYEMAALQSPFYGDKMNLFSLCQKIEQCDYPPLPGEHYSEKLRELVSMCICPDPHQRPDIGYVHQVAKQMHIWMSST

NEK7 (human) = NEK7 (human) (UniProt Q8TDX7)
PRKCB1 (human) = PRKCB1 (human) (UniProt P05771)
PRKCI (human) = PRKCI (human) (UniProt P41743)
PRKD2 (human) = PRKD2 (human) (UniProt Q9BZL6)
PTK6 (human) = PTK6 (human) (UniProt Q13882)
RPS6KB1 (human) = RPS6KB1 (human) (UniProt P23443)
SRMS (human) = SRMS (human) (UniProt Q9H3Y6)
STK25 (human) = STK25 (human) (UniProt O00506)
SYK (human) = SYK (human) (UniProt P43405)
TAOK1 (human) = TAOK1 (human) (UniProt Q7L7X3)
ULK2 (human) = ULK2 (human) (UniProt Q8IYT8)
ULK2 (human), sequence (Q8IYT8 whole entry, looked up): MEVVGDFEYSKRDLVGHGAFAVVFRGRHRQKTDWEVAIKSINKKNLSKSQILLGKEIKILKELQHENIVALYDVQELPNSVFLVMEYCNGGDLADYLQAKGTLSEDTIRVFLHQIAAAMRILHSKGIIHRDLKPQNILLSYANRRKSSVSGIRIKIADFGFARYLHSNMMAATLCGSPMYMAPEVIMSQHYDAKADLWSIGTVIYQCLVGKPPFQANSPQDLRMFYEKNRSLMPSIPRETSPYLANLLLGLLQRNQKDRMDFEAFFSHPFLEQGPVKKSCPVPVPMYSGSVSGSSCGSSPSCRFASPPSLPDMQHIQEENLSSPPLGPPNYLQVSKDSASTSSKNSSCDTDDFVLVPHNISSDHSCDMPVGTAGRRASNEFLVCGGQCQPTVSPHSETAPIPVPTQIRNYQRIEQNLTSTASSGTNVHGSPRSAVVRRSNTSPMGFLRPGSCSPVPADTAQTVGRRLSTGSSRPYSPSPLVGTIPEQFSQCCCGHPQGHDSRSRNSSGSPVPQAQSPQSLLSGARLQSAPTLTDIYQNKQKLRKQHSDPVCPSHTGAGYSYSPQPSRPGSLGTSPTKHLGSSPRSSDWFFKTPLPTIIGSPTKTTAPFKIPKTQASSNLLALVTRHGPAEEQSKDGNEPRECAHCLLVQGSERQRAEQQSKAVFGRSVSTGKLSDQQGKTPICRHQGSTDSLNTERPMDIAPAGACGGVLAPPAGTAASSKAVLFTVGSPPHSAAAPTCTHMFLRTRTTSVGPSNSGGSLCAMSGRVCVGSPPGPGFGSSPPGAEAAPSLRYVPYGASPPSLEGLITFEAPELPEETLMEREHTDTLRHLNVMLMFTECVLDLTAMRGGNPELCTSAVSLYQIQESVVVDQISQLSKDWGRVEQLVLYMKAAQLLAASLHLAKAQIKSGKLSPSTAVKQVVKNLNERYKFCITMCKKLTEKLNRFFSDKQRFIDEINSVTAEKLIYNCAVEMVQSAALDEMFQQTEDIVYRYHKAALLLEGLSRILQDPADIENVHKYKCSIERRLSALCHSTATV

BRSK1 (human), sequence (Q8TDC3 whole entry, looked up): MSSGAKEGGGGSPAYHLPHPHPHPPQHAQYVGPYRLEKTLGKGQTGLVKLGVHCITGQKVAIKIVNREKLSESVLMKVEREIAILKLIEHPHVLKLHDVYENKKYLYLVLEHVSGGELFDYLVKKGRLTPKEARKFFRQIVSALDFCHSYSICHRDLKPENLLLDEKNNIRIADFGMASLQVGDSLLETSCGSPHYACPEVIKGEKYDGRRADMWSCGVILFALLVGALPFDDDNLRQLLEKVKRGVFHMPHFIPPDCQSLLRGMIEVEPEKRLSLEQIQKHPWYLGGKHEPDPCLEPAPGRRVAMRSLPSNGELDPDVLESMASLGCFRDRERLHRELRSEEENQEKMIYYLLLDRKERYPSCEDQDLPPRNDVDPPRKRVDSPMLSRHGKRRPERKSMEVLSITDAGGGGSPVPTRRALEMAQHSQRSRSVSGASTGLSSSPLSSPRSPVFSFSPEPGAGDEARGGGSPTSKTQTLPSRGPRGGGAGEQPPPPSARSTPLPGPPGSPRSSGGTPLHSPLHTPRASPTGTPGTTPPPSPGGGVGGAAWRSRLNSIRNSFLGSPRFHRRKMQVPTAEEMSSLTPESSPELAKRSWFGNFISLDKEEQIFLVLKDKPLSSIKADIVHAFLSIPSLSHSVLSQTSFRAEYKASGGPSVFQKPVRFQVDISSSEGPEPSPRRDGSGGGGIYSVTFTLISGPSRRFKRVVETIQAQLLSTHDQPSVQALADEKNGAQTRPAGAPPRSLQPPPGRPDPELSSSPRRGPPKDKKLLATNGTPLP
ACVR1 (human), sequence (Q04771 whole entry, looked up): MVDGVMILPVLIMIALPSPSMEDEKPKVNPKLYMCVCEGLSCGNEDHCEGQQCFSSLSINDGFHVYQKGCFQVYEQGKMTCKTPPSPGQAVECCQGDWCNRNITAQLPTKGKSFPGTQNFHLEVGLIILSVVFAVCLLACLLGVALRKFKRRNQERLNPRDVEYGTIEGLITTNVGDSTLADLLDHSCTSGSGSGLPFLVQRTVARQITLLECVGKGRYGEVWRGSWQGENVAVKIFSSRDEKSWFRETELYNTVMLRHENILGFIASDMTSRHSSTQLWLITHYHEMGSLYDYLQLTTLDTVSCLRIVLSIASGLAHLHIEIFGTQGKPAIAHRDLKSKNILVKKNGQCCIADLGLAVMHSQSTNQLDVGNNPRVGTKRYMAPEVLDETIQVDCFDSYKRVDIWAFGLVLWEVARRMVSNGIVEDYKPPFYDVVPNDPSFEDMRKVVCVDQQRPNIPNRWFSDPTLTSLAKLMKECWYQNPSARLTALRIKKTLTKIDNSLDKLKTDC

With `O=C1NC(=O)c2c1c1c3ccccc3n3c1c1c2c2ccccc2n1C1CCC3O1` the residual activity (ACVR1 (human)) was 85.8%, the residual activity (BRSK1 (human)) was 14.8% and the residual activity (CAMK1 (human)) was 69.7%. For the same molecule, the residual activity (CAMK1G (human)) was 56.5%, the residual activity (CAMK2D (human)) was 7.03% and the residual activity (CDK5 CDK5R1 p25 (human)) was 28%. It also gave a residual activity (CHUK (human)) of 106%, a residual activity (CSNK1G1 (human)) of 96.1% and a residual activity (CSNK2A1 (human)) of 16.7%. The residual activity (DAPK1 (human)) was 32.7%, the residual activity (DDR2 (human)) was 80.1% and the residual activity (EPHA1 (human)) was 90.1%. For the same molecule, the residual activity (EPHA2 (human)) was 91.3%, the residual activity (EPHA3 (human)) was 96.5% and the residual activity (EPHA7 (human)) was 69.2%. For the same molecule, the residual activity (EPHB1 (human)) was 80.2%, the residual activity (FER (human)) was 5.39% and the residual activity (GRK6 (human)) was 55.6%. It also gave a residual activity (HIPK1 (human)) of 93.6%, a residual activity (HIPK2 (human)) of 32.6% and a residual activity (IRAK1 (human)) of 37.5%. For the same molecule, the residual activity (LTK (human)) was 21.8%, the residual activity (MAP3K5 (human)) was 56.2% and the residual activity (MAPK1 (human)) was 88.7%. For the same molecule, the residual activity (MAPK8 (human)) was 98.5%, the residual activity (MARK2 (human)) was 4.88% and the residual activity (MST1R (human)) was 87.7%. It also gave a residual activity (MYO3B (human)) of 19.1%, a residual activity (NEK3 (human)) of 102% and a residual activity (NEK4 (human)) of 22%. For the same molecule, the residual activity (NEK6 (human)) was 93.1%, the residual activity (NEK7 (human)) was 99.1% and the residual activity (PRKCB1 (human)) was 22.5%. For the same molecule, the residual activity (PRKCI (human)) was 86.4%, the residual activity (PRKD2 (human)) was 2.02% and the residual activity (PTK6 (human)) was 83.9%. It also gave a residual activity (RPS6KB1 (human)) of 2.38%, a residual activity (SRMS (human)) of 105% and a residual activity (STK25 (human)) of 34.4%. It also gave a residual activity (SYK (human)) of 15.8%, a residual activity (TAOK1 (human)) of 66.9% and a residual activity (ULK2 (human)) of 89.1%.
With `O=C1Nc2ccc(Cl)cc2/C1=C/c1cc(Cl)c(O)c(Cl)c1` the residual activity (ACVR1 (human)) was 130%, the residual activity (BRSK1 (human)) was 81.3% and the residual activity (CAMK1 (human)) was 94.9%. It also gave a residual activity (CAMK1G (human)) of 96.6%, a residual activity (CAMK2D (human)) of 80.2% and a residual activity (CDK5 CDK5R1 p25 (human)) of 82.6%. It also gave a residual activity (CHUK (human)) of 97%, a residual activity (CSNK1G1 (human)) of 89% and a residual activity (CSNK2A1 (human)) of 26.5%. It also gave a residual activity (DAPK1 (human)) of 90%, a residual activity (DDR2 (human)) of 85.8% and a residual activity (EPHA1 (human)) of 88.9%. It also gave a residual activity (EPHA2 (human)) of 95%, a residual activity (EPHA3 (human)) of 82.5% and a residual activity (EPHA7 (human)) of 97.5%. It also gave a residual activity (EPHB1 (human)) of 91%, a residual activity (FER (human)) of 92.1% and a residual activity (GRK6 (human)) of 89.6%. For the same molecule, the residual activity (HIPK1 (human)) was 102%, the residual activity (HIPK2 (human)) was 122% and the residual activity (IRAK1 (human)) was 95.4%. For the same molecule, the residual activity (LTK (human)) was 36.9%, the residual activity (MAP3K5 (human)) was 106% and the residual activity (MAPK1 (human)) was 84.3%. For the same molecule, the residual activity (MAPK8 (human)) was 82.8%, the residual activity (MARK2 (human)) was 79.7% and the residual activity (MST1R (human)) was 94.8%. The residual activity (MYO3B (human)) was 17.4%, the residual activity (NEK3 (human)) was 94% and the residual activity (NEK4 (human)) was 88.2%. For the same molecule, the residual activity (NEK6 (human)) was 104%, the residual activity (NEK7 (human)) was 100% and the residual activity (PRKCB1 (human)) was 97.3%. For the same molecule, the residual activity (PRKCI (human)) was 94.1%, the residual activity (PRKD2 (human)) was 95.5% and the residual activity (PTK6 (human)) was 73.8%. It also gave a residual activity (RPS6KB1 (human)) of 91%, a residual activity (SRMS (human)) of 86.3% and a residual activity (STK25 (human)) of 94%. For the same molecule, the residual activity (SYK (human)) was 93.3%, the residual activity (TAOK1 (human)) was 71.6% and the residual activity (ULK2 (human)) was 101%.
`CNc1cc2c(Nc3cccc(Br)c3)ncnc2cn1` showed a residual activity (ACVR1 (human)) of 104%, a residual activity (BRSK1 (human)) of 91.2% and a residual activity (CAMK1 (human)) of 92.3%. It also gave a residual activity (CAMK1G (human)) of 97.9%, a residual activity (CAMK2D (human)) of 97.9% and a residual activity (CDK5 CDK5R1 p25 (human)) of 82.9%. The residual activity (CHUK (human)) was 99%, the residual activity (CSNK1G1 (human)) was 81.7% and the residual activity (CSNK2A1 (human)) was 94.3%. For the same molecule, the residual activity (DAPK1 (human)) was 80.5%, the residual activity (DDR2 (human)) was 100% and the residual activity (EPHA1 (human)) was 103%. The residual activity (EPHA2 (human)) was 95.3%, the residual activity (EPHA3 (human)) was 96.1% and the residual activity (EPHA7 (human)) was 94.6%. For the same molecule, the residual activity (EPHB1 (human)) was 90.2%, the residual activity (FER (human)) was 97.1% and the residual activity (GRK6 (human)) was 91.1%. The residual activity (HIPK1 (human)) was 96.5%, the residual activity (HIPK2 (human)) was 98.4% and the residual activity (IRAK1 (human)) was 85.2%. For the same molecule, the residual activity (LTK (human)) was 76.2%, the residual activity (MAP3K5 (human)) was 94.6% and the residual activity (MAPK1 (human)) was 88.6%. It also gave a residual activity (MAPK8 (human)) of 96.4%, a residual activity (MARK2 (human)) of 90.9% and a residual activity (MST1R (human)) of 73.9%. It also gave a residual activity (MYO3B (human)) of 91.1%, a residual activity (NEK3 (human)) of 101% and a residual activity (NEK4 (human)) of 94.9%. The residual activity (NEK6 (human)) was 89.8%, the residual activity (NEK7 (human)) was 90.4% and the residual activity (PRKCB1 (human)) was 95.3%. The residual activity (PRKCI (human)) was 96.4%, the residual activity (PRKD2 (human)) was 86.4% and the residual activity (PTK6 (human)) was 54.4%. It also gave a residual activity (RPS6KB1 (human)) of 97.4%, a residual activity (SRMS (human)) of 100% and a residual activity (STK25 (human)) of 102%. For the same molecule, the residual activity (SYK (human)) was 95.3%, the residual activity (TAOK1 (human)) was 92.4% and the residual activity (ULK2 (human)) was 119%.
